In ChEMBL document CHEMBL1201862, “PubChem BioAssay data set” (2004):
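Dose response: 5 concentrations. Exposure: 48 h. Format: 96-well plates. Endpoint: linear interpolation; highest concentration if not reached. Here, GI50 denotes the concentration required for 50% inhibition of growth.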 Activity calls are given as the source filed them. No stated cut-off is given here; in the data, active = GI50 up to about 1.1 µM and inactive = higher.

What was measured:
Test in all cases: DTP human tumour cell line panel, 48 h
[1] = system: 786-0
[2] = system: A498
[3] = system: A549
[4] = system: ACHN
[5] = system: CAKI-1
[6] = system: CCRF-CEM
[7] = system: COLO 205
[8] = system: DLD-1
[9] = system: DMS-114
[10] = system: DMS-273
[11] = system: HCC 2998
[12] = system: HCT-116
[13] = system: HCT-15
[14] = system: HL-60
[15] = system: HOP-62
[16] = system: HOP-92
[17] = system: HT-29
[18] = system: IGROV-1
[19] = system: K562
[20] = system: KM-20L2
[21] = system: KM12
[22] = system: LOX IMVI
[23] = system: LXFL 529
[24] = system: M14
[25] = system: M19-MEL
[26] = system: MOLT-4
[27] = system: Malme-3M
[28] = system: NCI-H23
[29] = system: NCI-H522
[30] = system: OVCAR-3
[31] = system: OVCAR-4
[32] = system: RPMI-8226
[33] = system: RXF 393
[34] = system: RXF 631
[35] = system: SF-268
[36] = system: SF-295
[37] = system: SF-539
[38] = system: SK-MEL-28
[39] = system: SK-MEL-2
[40] = system: SK-MEL-5
[41] = system: SN12C
[42] = system: SNB-19
[43] = system: SNB-75
[44] = system: SR
[45] = system: SW-620
[46] = system: U-251
[47] = system: UACC-257
[48] = system: UACC-62
[49] = system: XF498
[50] = system: EKVX
[51] = system: HOP-18
[52] = system: NCI-H226
[53] = system: NCI-H460
[54] = system: OVCAR-5
[55] = system: OVCAR-8
[56] = system: SNB-78
[57] = system: TK-10
[58] = system: UO-31
[59] = system: SK-OV-3

O=C1c2cnccc2Cc2cccc3c2N1c1ccccc1S3
GI50 [1]: 28.1 µM (inactive)
GI50 [2]: 20.7 µM (inactive)
GI50 [3]: 23.6 µM (inactive)
GI50 [4]: 19 µM (inactive)
GI50 [5]: 2.88 µM (inactive)
GI50 [6]: 27.5 µM (inactive)
GI50 [7]: 27.4 µM (inactive)
GI50 [8]: 29.2 µM (inactive)
GI50 [9]: 26.4 µM (inactive)
GI50 [10]: 22.9 µM (inactive)
GI50 [11]: 16.6 µM (inactive)
GI50 [12]: 19 µM (inactive)
GI50 [13]: 23.3 µM
GI50 [14]: 21.1 µM (inactive)
GI50 [15]: 20.9 µM (inactive)
GI50 [16]: 9.23 µM (inactive)
GI50 [17]: 23.9 µM (inactive)
GI50 [18]: 28 µM (inactive)
GI50 [19]: 20.8 µM (inactive)
GI50 [20]: 17.6 µM (inactive)
GI50 [21]: 19.7 µM (inactive)
GI50 [22]: 22.7 µM (inactive)
GI50 [23]: 27.5 µM (inactive)
GI50 [24]: 24.3 µM (inactive)
GI50 [25]: 28.9 µM (inactive)
GI50 [26]: 28.3 µM (inactive)
GI50 [27]: 24.7 µM (inactive)
GI50 [28]: 20.1 µM (inactive)
GI50 [29]: 12.5 µM (inactive)
GI50 [30]: 17.7 µM (inactive)
GI50 [31]: 21.5 µM (inactive)
GI50 [32]: 20.6 µM (inactive)
GI50 [33]: 21.6 µM (inactive)
GI50 [34]: 26.1 µM (inactive)
GI50 [35]: 29 µM (inactive)
GI50 [36]: 28.2 µM (inactive)
GI50 [37]: 20.6 µM (inactive)
GI50 [38]: 26.1 µM (inactive)
GI50 [39]: 16.8 µM (inactive)
GI50 [40]: 17.9 µM (inactive)
GI50 [41]: 29 µM (inactive)
GI50 [42]: 30.9 µM (inactive)
GI50 [43]: 12.6 µM (inactive)
GI50 [44]: 12.4 µM (inactive)
GI50 [45]: 27.8 µM (inactive)
GI50 [46]: 16.6 µM (inactive)
GI50 [47]: 23.3 µM (inactive)
GI50 [48]: 18 µM (inactive)
GI50 [49]: 15.1 µM (inactive)

NCCCN(CCCN)CCCNCc1c2ccccc2c(CNCCCN(CCCN)CCCN)c2ccccc12
GI50 [1]: 11.4 µM (inactive)
GI50 [2]: 28.2 µM (inactive)
GI50 [3]: 24.3 µM (inactive)
GI50 [4]: 11.7 µM (inactive)
GI50 [5]: 16.2 µM (inactive)
GI50 [6]: > 100 µM (inactive)
GI50 [7]: 8.09 µM (inactive)
GI50 [8]: 14.7 µM (inactive)
GI50 [10]: 6.08 µM (inactive)
GI50 [50]: 12.8 µM (inactive)
GI50 [11]: 4.51 µM (inactive)
GI50 [12]: 14.9 µM (inactive)
GI50 [13]: 14.4 µM
GI50 [14]: 11.6 µM (inactive)
GI50 [51]: 6.73 µM (inactive)
GI50 [15]: 14.4 µM (inactive)
GI50 [16]: 24.8 µM (inactive)
GI50 [17]: 11 µM (inactive)
GI50 [18]: 11.1 µM (inactive)
GI50 [19]: 9.42 µM (inactive)
GI50 [20]: 25.2 µM (inactive)
GI50 [21]: 4.37 µM (inactive)
GI50 [22]: 19.1 µM (inactive)
GI50 [23]: 10.5 µM (inactive)
GI50 [24]: 13.6 µM (inactive)
GI50 [25]: 7.59 µM (inactive)
GI50 [26]: 26.1 µM (inactive)
GI50 [27]: 8.07 µM (inactive)
GI50 [52]: 72.1 µM (inactive)
GI50 [28]: 22.5 µM (inactive)
GI50 [53]: 12 µM (inactive)
GI50 [29]: 11.6 µM (inactive)
GI50 [30]: 19 µM (inactive)
GI50 [31]: 17.2 µM (inactive)
GI50 [54]: 42 µM (inactive)
GI50 [55]: 12.4 µM (inactive)
GI50 [32]: 3.24 µM (inactive)
GI50 [33]: 21.4 µM (inactive)
GI50 [34]: 16 µM (inactive)
GI50 [35]: 18.3 µM (inactive)
GI50 [36]: 12.3 µM (inactive)
GI50 [37]: 14.7 µM (inactive)
GI50 [38]: 7.16 µM (inactive)
GI50 [39]: 23.7 µM (inactive)
GI50 [40]: 4.6 µM (inactive)
GI50 [41]: 15.4 µM (inactive)
GI50 [42]: 14.6 µM (inactive)
GI50 [43]: 16.5 µM (inactive)
GI50 [56]: 30.8 µM (inactive)
GI50 [44]: 35.2 µM (inactive)
GI50 [45]: 13.3 µM (inactive)
GI50 [57]: 10.8 µM (inactive)
GI50 [46]: 16.7 µM (inactive)
GI50 [47]: 13.7 µM (inactive)
GI50 [48]: 7.21 µM (inactive)
GI50 [58]: 29.6 µM (inactive)
GI50 [49]: 17.1 µM (inactive)

CCCCCCCCSC(=O)NCCCC
GI50 [1]: 38.1 µM (inactive)
GI50 [2]: 54.1 µM (inactive)
GI50 [3]: 38.2 µM (inactive)
GI50 [4]: 34.7 µM (inactive)
GI50 [5]: 36.1 µM (inactive)
GI50 [6]: 28.2 µM (inactive)
GI50 [7]: 54.6 µM (inactive)
GI50 [8]: 35.8 µM (inactive)
GI50 [10]: 35 µM (inactive)
GI50 [50]: 27.8 µM (inactive)
GI50 [13]: 27.2 µM
GI50 [14]: 18.7 µM (inactive)
GI50 [51]: 94.6 µM (inactive)
GI50 [16]: 14.4 µM (inactive)
GI50 [17]: 26.4 µM (inactive)
GI50 [18]: > 100 µM (inactive)
GI50 [19]: 38.2 µM (inactive)
GI50 [20]: 23.7 µM (inactive)
GI50 [21]: 51.8 µM (inactive)
GI50 [22]: 19.9 µM (inactive)
GI50 [23]: 37.8 µM (inactive)
GI50 [24]: 25.8 µM (inactive)
GI50 [25]: 42.1 µM (inactive)
GI50 [26]: 23.2 µM (inactive)
GI50 [27]: 24.5 µM (inactive)
GI50 [28]: 49.7 µM (inactive)
GI50 [53]: 34 µM (inactive)
GI50 [29]: 27.1 µM (inactive)
GI50 [30]: 41.3 µM (inactive)
GI50 [31]: 33.5 µM (inactive)
GI50 [54]: 48.4 µM (inactive)
GI50 [55]: 36.6 µM (inactive)
GI50 [32]: 20.3 µM (inactive)
GI50 [33]: 21.5 µM (inactive)
GI50 [34]: 39.4 µM (inactive)
GI50 [35]: 35.8 µM (inactive)
GI50 [36]: 38.5 µM (inactive)
GI50 [37]: 74 µM (inactive)
GI50 [38]: 29 µM (inactive)
GI50 [39]: 17.7 µM (inactive)
GI50 [40]: 22.2 µM (inactive)
GI50 [59]: > 100 µM (inactive)
GI50 [41]: 33 µM (inactive)
GI50 [42]: 34.6 µM (inactive)
GI50 [43]: 24.6 µM (inactive)
GI50 [45]: 75.3 µM (inactive)
GI50 [57]: 46.7 µM (inactive)
GI50 [46]: 35.5 µM (inactive)
GI50 [48]: 43 µM (inactive)
GI50 [58]: 19.6 µM (inactive)
GI50 [49]: 21.4 µM (inactive)
